Patent publication US9579406B2, “Phospholipid ether analogs as agents for detecting and locating cancer, and methods thereof” (Cellectar, Inc., priority 2004, dated 2017)
Entries after “also recorded” stand apart in the source; their conditions may differ.

Columns and labels:
[1] = MIRDOSE radiation dose estimates for the adult female; parameters: species or system human (from female rat biodistribution data)
Description: Dosimetry estimation regarding I-125-NM404 for an adult female patients were calculated based on SPECT imaging data using female non-tumor bearing rats following administration of I-131-NM404. The results are listed below:
The dosimetry data were calculated from SPECT imaging in rats using I-131-NM404 and then converted to I-125-NM404. The adrenal gland seems to be the dose-limiting or critical organ for radiation exposure. In the SPECT imaging experiments the thyroids of rats were unblocked. Thus, the thyroid calculations should be evaluated with caution.

[2] = Acute GLP toxicology, single dose, 14 days observation, rabbits; assay type: in vivo
Description: Formal toxicology studies of NM404 in male rats and rabbits were performed at the Toxicology Research Center of the State University of New York at Buffalo under the direction of Dr. Paul Kostyniak. Drug vehicle and drug product were provided to Dr. Kostyniak by Dr. Raymond Counsell of the University of Michigan for testing as described in the appended synopses of Study 27 and Study 28. […] Human safety studies of unlabeled NM404 were initiated in normal male humans at a mass of 10 times the anticipated imaging dose and about 21 times the anticipated therapy dose. […] This toxicology study was performed under GLP conditions.
Subsequently, the researchers at the University of Wisconsin initiated a toxicology study of unlabeled NM404 in female rats and rabbits (Study 31 and Study 32) at the Toxicology Research Center at SUNY-Buffalo in order to expand the patient population to be studied in the NSCLC Phase 1 clinical trial. […] Human safety studies of unlabeled NM404 were initiated in normal female humans at a mass of 10 times the initially anticipated imaging dose and about 21 times the anticipated therapy dose. […] This toxicology study was performed under GLP conditions.

[3] = system: phospholipase D (PLD); assay: Phospholipase D (PLD) assay; assay type: biochemical, cabbage; settings: in the presence of ethanol
Description: Finally, several PLE analogs were subjected to a phospholipase D (PLD) assay. The PLD, which was isolated from cabbage, is similar to mammalian PLD in that the cabbage form affords phosphatidylethanol-type products in addition to phosphatidic acid when the enzymatic reaction is performed in the presence of ethanol. Several of the PLE analogs subjected to these assay conditions did give rise to the phosphatidylethanol adduct, indicating possible interaction with PLD. The inventors believes that NM404 is a metabolic substrate to human Phospholipase D, and that the relative absence of Phospholipase D in cancer cell membranes is the underlying mechanism for tumor-selective retention of NM404. Although known from the literature (reference[…]), it is still unclear why cancers lack PLD in their membranes.
As conclusion, the mechanism of selective retention of NM404 may be due to a decrease in the membrane levels of PLD, thus precluding metabolism and clearance of NM404 from the cell. […] This supports the finding of the in vitro cell culture uptake and retention study wherein it was shown that PLE analogs were sequestered by and subsequently metabolized by normal cells (which contained normal levels of PLD). […]

[4] = system: TRAMP prostate tumors; assay: Bioscan imaging of TRAMP mice prostate tumors; assay type: in vivo; settings: 125I label 15 μCi, 1-8 days
Description: Following in vivo imaging of anesthetized mice, the prostate tumors were removed immediately, and imaged ex vivo on the same scanner (equipped with high resolution 1 mm collimator and 2-D acquisition and analysis software) in order to avoid tissue attenuation associated with the low energy of iodine-125 (FIG. 21). […] In an attempt to simulate bone metastases another experiment was performed wherein human PC-3 tumor cells were implanted into the tibia of immune compromised NUDE mice (n=6) according to a recent reports. Following tumor cell inoculation, mice were scanned serially by high-resolution microCT in order to monitor bone tumor development (FIG. 22). Once bone deterioration was detected, iodine-125 labeled NM404 was administered intravenously via tail vein. Mice were scanned for radioactivity and by microCT 4 days post NM404 administration. Radioactivity scans were fused with microCT scans (FIG. 23) to corroborate NM404 radioactivity and tumor location.

[5] = system: benign intestinal adenomas, preneoplastic hyperplasias; assay: Selectivity for benign and preneoplastic lesions; assay type: in vivo, mouse
From the text: (§1) Although tumor retention can be explained by a lack of metabolic phospholipase enzymes in the tumor cell membranes, the exact mechanism of tumor cell uptake is unknown. […] The inventors are currently evaluating the selectivity of NM404 in a unique mouse tumor model developed at Wisconsin, wherein both preneoplastic hyperplasias and malignant adenocarcinomas form spontaneously in the mammary gland. […] If this initial observation is validated, then via genomic and or proteomic analysis the inventors may be able to identify a key genetic difference between malignant tumors and their non malignant predecessor cells. This could identify a completely new molecular therapeutic target that may be universal for all types of cancer.

[6] = system: Colon LS-180; assay: Tumor models examined with NM404 (Table 2); assay type: in vivo, Nude Mouse; settings: Adenocarcinoma
From the text: (§2) NM404 has now been evaluated in 27 animal tumor models, including several lung, and it is clear that once the agent enters tumor cells, it reaches a metabolic dead end and becomes trapped. […] NM404 is also retained in spontaneous murine lung tumors (FIG. 13). Using ^125I-labeled NM404, the inventors have been able to image mammary and prostate tumors in mice in excess of 60 days. […] Imaging and tissue distribution studies performed in mouse models aimed at determining the uptake characteristics in a wide variety of tumor models are summarized in Table 2.
as §1

[7] = system: Melanoma A-375; assay: Tumor models examined with NM404 (Table 2); assay type: in vivo, Nude Mouse
From the text: as §2, §1

[8] = system: Ovarian HTB-77; assay: Tumor models examined with NM404 (Table 2); assay type: in vivo, Nude Mouse; settings: Adenocarcinoma
From the text: as §2, §1

[9] = system: Cervical; assay: Tumor models examined with NM404 (Table 2); assay type: in vivo, Transgenic mouse; settings: Adenocarcinoma
From the text: as §2, §1

[10] = system: Min Mouse Intestinal; assay: Tumor models examined with NM404 (Table 2); assay type: in vivo, Transgenic mouse; settings: Adenocarcinoma
From the text: as §2, §1

[11] = system: Pancreas c-myc/k-ras; assay: Tumor models examined with NM404 (Table 2); assay type: in vivo, Transgenic mouse; settings: Ductal/acinar
From the text: as §2, §1

[12] = system: Retinoblastoma; assay: Tumor models examined with NM404 (Table 2); assay type: in vivo, Transgenic mouse; settings: Blastoma
From the text: as §2, §1

[13] = system: TGFα Hepatoma; assay: Tumor models examined with NM404 (Table 2); assay type: in vivo, Transgenic mouse
From the text: as §2, §1

[14] = system: TRAMP prostate; assay: Tumor models examined with NM404 (Table 2); assay type: in vivo, Transgenic mouse; settings: Adenocarcinoma
From the text: as §2, §1

[15] = system: SCC1 and 6; assay: Tumor models examined with NM404 (Table 2); assay type: in vivo, Nude mouse xenograft; settings: Squamous cell carcinoma
From the text: as §2, §1

[16] = system: MAT LyLu cells; assay: Gamma camera scintigraphy in rat Dunning R3327 (MAT LyLu) prostate cancer model
From the text: The MatLyLu (Dunning R3327 rat) model, a rat prostate tumor line, was used specifically to screen 9 specific analogs prior to entering them into control for dosimetry and tumor-bearing animals for determining tumor/background ratios.
In order to expedite the screening process and minimize the number of tumor bearing animals utilized in multiple time point tissue distribution studies, new radioiodinated homologs were imaged by gamma camera scintigraphy in the rat Dunning R3337 (MAT LyLu strain) prostate cancer model. […] Gamma camera images were obtained at multiple time points including 24 and 48 hours post injection.
The new PLE analogs were synthesized and radiolabeled with ^125I for initial image analysis in Copenhagen rats bearing Dunning R3327 prostate tumors.

SMILES: C[N+](C)(C)CCOP(=O)([O-])OCCCCCCCCCCCCCCCCCCc1ccc([125I])cc1 [Compound I-125-NM404]
- activity for 3 rads to Ovaries [1]: 20 mCi
- activity for 5 rads to Adrenals [1]: 18 mCi
- activity for 5 rads to Thyroids [1]: 4.5 mCi

SMILES: C[N+](C)(C)CCOP(=O)([O-])OCCCCCCCCCCCCCCCCCCc1ccc(I)cc1 [NM-404, 18-(4-iodophenyl)-octadecylphosphocholine]
- toxic effects ([2]; female rabbits, 0.04 mg/kg (Study 32)): no significant toxic effects were noted
- adverse effects ([2]; male and female rabbits): no adverse effects attributable to the test article were noted
- toxic effects ([2]; male rabbits, 4 mg/kg (Study 28)): no significant toxic effects were noted
- acute toxicity ([2]; unlabeled, 1200 times the anticipated imaging mass dose): no acute toxicities were found
- substrate for PLD [3]: a good substrate for this enzyme
- uptake into prostate tumor and benign hyperplasia [4]: uptake of NM404 into prostate tumor but not benign hyperplasia; also recorded: intense uptake of radioactivity in the prostate tumor
- uptake and retention in preneoplastic lesions ([5]; mammary gland model, preliminary): not taken up and retained in preneoplastic lesions
- localization in benign intestinal adenomas ([5]; mouse, in vivo): does not localize in benign intestinal adenomas (polyps)
- NM404 Tumor Localization [6]: Yes (Localization defined as >5% injected dose per gram tumor basis based on tissue distribution data)
- NM404 Tumor Localization [7]: Yes (Localization defined as >5% injected dose per gram tumor basis based on tissue distribution data)
- NM404 Tumor Localization [8]: Yes (Localization defined as >5% injected dose per gram tumor basis based on tissue distribution data)
- NM404 Tumor Localization [9]: Yes (Localization defined as >5% injected dose per gram tumor basis based on tissue distribution data)
- NM404 Tumor Localization [10]: Yes (Localization defined as >5% injected dose per gram tumor basis based on tissue distribution data)
- NM404 Tumor Localization [11]: Yes (Localization defined as >5% injected dose per gram tumor basis based on tissue distribution data)
- NM404 Tumor Localization [12]: Yes (Localization defined as >5% injected dose per gram tumor basis based on tissue distribution data)
- NM404 Tumor Localization [13]: Yes (Localization defined as >5% injected dose per gram tumor basis based on tissue distribution data)
- NM404 Tumor Localization [14]: Yes (Localization defined as >5% injected dose per gram tumor basis based on tissue distribution data)
- NM404 Tumor Localization [15]: Yes (Localization defined as >5% injected dose per gram tumor basis based on tissue distribution data)
- liver activity and tumor retention in initial image screen ([16]; 125I-labeled): much lower liver activity than its predecessor NM324 but also maintained prolonged tumor retention
- tumor uptake and liver/abdominal radioactivity by gamma camera imaging ([16]; tumor-bearing rats, 24 and 48 hours post injection): readily visualized
